For orientation: Kd means the free concentration of one partner at which half of the binding sites on the other are occupied at equilibrium, for simple one-to-one binding. The low end stands for higher affinity, the high end for lower affinity.

Consider 1 compound from paper PMC10687169, “Insights into the recognition mechanism in the UBR box of UBR4 for its specific substrates” (Communications Biology, 2023).

The assay concerns the target T1, UBR4^UBR (UBR box of Human UBR4) (Homo sapiens, UniProt Q5T4S7).
T1 construct: UBR box residues 1660-1729 (Methods; Results b12 prints 1669-1729); N-terminal 10His-MBP tag kept for ITC, cut with TEV for crystals; E. coli BL21(DE3) RIL; three zinc ions; crystal 8J9R from YIFS-UBR4 (YIFS fused at N-terminus, LC3B tag removed by ATG4B)
The experiment in a line: ITC. It is filed as binding. The note with it: pH 7.5, 200 mM NaCl, 25 °C; 0.225 mM protein, 4.5 mM peptide; 10His-MBP-tagged protein.

Where a SMILES comes first, the peptide text is derived from it.

T1 sequence (Q5T4S7 1660-1729): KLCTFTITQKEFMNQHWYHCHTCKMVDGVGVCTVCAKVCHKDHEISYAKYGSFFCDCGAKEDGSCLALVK

As for `CC[C@H](C)[C@H](NC(=O)[C@@H](N)CCCNC(=N)N)C(=O)N[C@@H](Cc1ccccc1)C(=O)N[C@@H](CO)C(=O)O` [RIFS] (H-RIFS-OH), the Kd stood at 626 ± 29 µM.
